Source: patent US20130065818A1, “Arylamide Compounds And Compositions And Uses Thereof” (POLYMEDIX, priority 2006, published 2013)
Where two headings read alike, the source gives them in different places.

Columns and labels:
S. aureus ATCC 27660 = experiment: MIC, control bacteria (Example 8); assay type: cell-based
Description: • Mueller-Hinton Broth in tubes was inoculated with 25 ocular isolates of Staphylococcus aureus fluoroquinolone-susceptible, Staphylococcus aureus fluoroquinolone-resistant, Staphylococcus epidermidis (Coagulase-negative Staphylococcus) fluoroquinolone-susceptible, Staphylococcus epidermidis (Coagulase-negative Staphylococcus) fluoroquinolone-resistant, Pseudomonas aeruginosa and Serratia marcescens, plus two controls (Staphylococcus aureus and E. coli) and incubated at 37° C. overnight on a shaker set at 250 rpm.
Control Bacteria—The two control bacteria (Staphylococcus aureus and E. coli) were treated as above.
Control Bacteria Set #1—this set of control bacteria were treated as the Streptococcus pneumoniae, Streptococcus viridans and Moraxella species (including Moraxella catarrhalis) test isolates above; the control bacteria underwent the same conditions as the test Streptococcus pneumoniae, Streptococcus viridans and Moraxella species (including Moraxella catarrhalis) isolates. This set of control bacteria was to determine whether there was a difference in the MICs by performing the MIC determinations in 2% lysed horse red blood cells with the standard method performed in Mueller-Hinton broth.
Control Bacteria Set #2—the control bacteria were added to 5 ml of Mueller-Hinton Broth without the 2% lysed horse red blood cells to achieve the standard inoculum concentration. This set of control bacteria is the normal control to determine whether the compounds are at the target MICs.
Control Bacteria Set #1—this set of control bacteria were treated as the Haemophilus influenzae test isolates above; the control bacteria underwent the same conditions as the test Haemophilus influenzae isolates. This set of control bacteria is to determine whether there was a difference in the MICs by performing the MIC determinations in HTM broth with the standard method performed in Mueller-Hinton broth.
Control Bacteria Set #2—the control bacteria were added to 5 ml of Mueller-Hinton Broth to achieve the standard inoculum concentration. This set of control bacteria is the normal control to determine whether the compounds are at the target MICs.
Ninety μl of the bacterial suspensions was dispensed in each well from column 1 to column 12. Each bacterial isolate was placed in one row of a 96 well polypropylene plate containing the test agents. The plates were placed on shaker at 15 minutes at room temperature, and then incubated at 37° C. overnight. MICs were determined visually as the lowest concentration of drug that inhibits visible bacterial growth.

P. aeruginosa ATCC 10145 = experiment: MIC, laboratory strains (Example 8); assay type: cell-based
[1] = Control Bacteria S. aureus ATCC 27660

N=C(N)NCCCCC(=O)Nc1cc(C(F)(F)F)cc(NC(=O)c2cnc(C(=O)Nc3cc(C(F)(F)F)cc(NC(=O)CCCCNC(=N)N)c3SCCN)cn2)c1SCCN [Oligomer 5]
increase or have no effect: Decrease of activity by addition of 2% lysed horse red blood cells to Mueller-Hinton broth (S. aureus ATCC 27660; [1])
0.25 µg/mL: MIC (S. aureus ATCC 27660; S. aureus ATCC 27660, new batches, Control Only 1) | MIC (S. aureus ATCC 27660; S. aureus ATCC 27660, new batches, Control Only 2) | MIC (S. aureus ATCC 27660; Staphylococcus aureus, ATCC27660, Control Only 1, read-out: MIC of control bacteria on day of MIC testing) | MIC (S. aureus ATCC 27660; Staphylococcus aureus, ATCC27660, Control Only 2, read-out: MIC of control bacteria on day of MIC testing) | MIC (S. aureus ATCC 27660; Staphylococcus aureus, ATCC27660, S. aureus ATCC 27660, control bacteria run with Pseudomonas aeruginosa MIC test, read-out: MIC) | MIC (S. aureus ATCC 27660; Staphylococcus aureus, ATCC27660, S. aureus ATCC 27660, control bacteria run with S. epidermidis fluoroquinolone-resistant MIC test, read-out: MIC) | MIC (S. aureus ATCC 27660; Staphylococcus aureus, ATCC27660, S. aureus ATCC 27660, control bacteria run with S. epidermidis fluoroquinolone-susceptible MIC test, read-out: MIC) | MIC (S. aureus ATCC 27660; Staphylococcus aureus, ATCC27660, control for MIC test PA, read-out: MIC of control bacteria on day of MIC testing) | MIC (S. aureus ATCC 27660; Staphylococcus aureus, ATCC27660, control for MIC test SE-FQR, read-out: MIC of control bacteria on day of MIC testing) | MIC (S. aureus ATCC 27660; Staphylococcus aureus, ATCC27660, control for MIC test SE-FQS, read-out: MIC of control bacteria on day of MIC testing)
0.5 µg/mL: MIC (S. aureus ATCC 27660; S. aureus ATCC 27660, new batches, Control Only 3) | MIC (S. aureus ATCC 27660; S. aureus ATCC 27660, new batches, Control Only 4) | MIC (S. aureus ATCC 27660; Staphylococcus aureus, ATCC27660, Control Only 3, read-out: MIC of control bacteria on day of MIC testing) | MIC (S. aureus ATCC 27660; Staphylococcus aureus, ATCC27660, Control Only 4, read-out: MIC of control bacteria on day of MIC testing) | MIC (S. aureus ATCC 27660; Staphylococcus aureus, ATCC27660, S. aureus ATCC 27660, control bacteria run with Serratia marcescens MIC test, read-out: MIC) | MIC (S. aureus ATCC 27660; Staphylococcus aureus, ATCC27660, control for MIC test HI (Control Bacteria Set #2), read-out: MIC of control bacteria on day of MIC testing) | MIC (S. aureus ATCC 27660; Staphylococcus aureus, ATCC27660, control for MIC test MS (Control Bacteria Set #2), read-out: MIC of control bacteria on day of MIC testing) | MIC (S. aureus ATCC 27660; Staphylococcus aureus, ATCC27660, control for MIC test SM, read-out: MIC of control bacteria on day of MIC testing)
> 100 µg/mL: MIC (P. aeruginosa ATCC 10145)
16 µg/mL: MIC (S. aureus ATCC 27660; S. aureus ATCC 27660, Control for MIC Test SA-FQS, first batch) | MIC (S. aureus ATCC 27660; Staphylococcus aureus, ATCC27660, S. aureus ATCC 27660, control bacteria run with S. aureus fluoroquinolone-susceptible MIC test, read-out: MIC) | MIC (S. aureus ATCC 27660; Staphylococcus aureus, ATCC27660, control for MIC test SA-FQS, read-out: MIC of control bacteria on day of MIC testing)
0.78 µg/mL: MIC (S. aureus ATCC 27660; S. aureus ATCC 27660) | MIC (S. aureus ATCC 27660; Staphylococcus aureus, ATCC27660, S. aureus ATCC 27660, MIC previously obtained (target MIC), printed in parentheses, read-out: MIC for Control Bacteria within the parentheses) | MIC (S. aureus ATCC 27660; Staphylococcus aureus, ATCC27660, S. aureus ATCC27660, read-out: MIC) | MIC (S. aureus ATCC 27660; Staphylococcus aureus, ATCC27660, reference MIC printed in parentheses beside the day's control value, read-out: MIC for Control Bacteria (within the parentheses))
1 µg/mL: MIC (S. aureus ATCC 27660; Staphylococcus aureus, ATCC27660, Control Bacteria Set #1, run with Moraxella MIC test, read-out: MIC) | MIC (S. aureus ATCC 27660; Staphylococcus aureus, ATCC27660, S. aureus ATCC 27660, Control Bacteria Set #1 (same conditions as test isolates), run with Streptococcus pneumoniae MIC test, read-out: MIC) | MIC (S. aureus ATCC 27660; Staphylococcus aureus, ATCC27660, S. aureus ATCC 27660, Control Bacteria Set #1 (same conditions as test isolates), run with Streptococcus viridans group MIC test, read-out: MIC) | MIC (S. aureus ATCC 27660; Staphylococcus aureus, ATCC27660, S. aureus ATCC 27660, Control Bacteria Set #2 (Mueller-Hinton Broth), run with Streptococcus viridans group MIC test, read-out: MIC) | MIC (S. aureus ATCC 27660; Staphylococcus aureus, ATCC27660, control for MIC test SV, read-out: MIC of control bacteria on day of MIC testing)
4 µg/mL: MIC (S. aureus ATCC 27660; Control Bacteria Set #1, run with Haemophilus influenzae MIC test, read-out: MIC)
8 µg/mL: MIC (S. aureus ATCC 27660; S. aureus ATCC 27660, Control for MIC Test SA-FQR, first batch) | MIC (S. aureus ATCC 27660; Staphylococcus aureus, ATCC27660, S. aureus ATCC 27660, control bacteria run with S. aureus fluoroquinolone-resistant MIC test, read-out: MIC) | MIC (S. aureus ATCC 27660; Staphylococcus aureus, ATCC27660, control for MIC test SA-FQR, read-out: MIC of control bacteria on day of MIC testing)
2 µg/mL: MIC (S. aureus ATCC 27660; Staphylococcus aureus, ATCC27660, S. aureus ATCC 27660, Control Bacteria Set #2 (Mueller-Hinton Broth), run with Streptococcus pneumoniae MIC test, read-out: MIC) | MIC (S. aureus ATCC 27660; Staphylococcus aureus, ATCC27660, control for MIC test SP, read-out: MIC of control bacteria on day of MIC testing)
approximately 8 fold: Decrease of activity by use of HTM broth (S. aureus ATCC 27660; [1])
